By IC50 is commonly meant the concentration needed to halve the response being measured.

Test [1] has as its target T1, Epidermal growth factor receptor (Homo sapiens, UniProt P00533). Nature of the test: Inhibition of EGFR autophosphorylation in DiFi cells by ELISA. It counts as functional, cell-based. A general note: ELISA stands for enzyme-linked immunosorbent assay.
For test [2], the target named is T1, Epidermal growth factor receptor. Nature of the test: Inhibition of EGFR measured as pGAT-biotin peptide phosphorylation in presence of 2.0 uM ATP by HTRF assay. In kind it is functional. Background: TR-FRET usually uses a lanthanide donor and a delayed reading to cut background.
Test [3] concerns the target Vascular endothelial growth factor receptor 2 (Homo sapiens, UniProt P35968).
Description: Inhibition of KDR measured as pGAT-biotin peptide phosphorylation by HTRF assay

Chain of Vascular endothelial growth factor receptor 2 (P35968 whole entry): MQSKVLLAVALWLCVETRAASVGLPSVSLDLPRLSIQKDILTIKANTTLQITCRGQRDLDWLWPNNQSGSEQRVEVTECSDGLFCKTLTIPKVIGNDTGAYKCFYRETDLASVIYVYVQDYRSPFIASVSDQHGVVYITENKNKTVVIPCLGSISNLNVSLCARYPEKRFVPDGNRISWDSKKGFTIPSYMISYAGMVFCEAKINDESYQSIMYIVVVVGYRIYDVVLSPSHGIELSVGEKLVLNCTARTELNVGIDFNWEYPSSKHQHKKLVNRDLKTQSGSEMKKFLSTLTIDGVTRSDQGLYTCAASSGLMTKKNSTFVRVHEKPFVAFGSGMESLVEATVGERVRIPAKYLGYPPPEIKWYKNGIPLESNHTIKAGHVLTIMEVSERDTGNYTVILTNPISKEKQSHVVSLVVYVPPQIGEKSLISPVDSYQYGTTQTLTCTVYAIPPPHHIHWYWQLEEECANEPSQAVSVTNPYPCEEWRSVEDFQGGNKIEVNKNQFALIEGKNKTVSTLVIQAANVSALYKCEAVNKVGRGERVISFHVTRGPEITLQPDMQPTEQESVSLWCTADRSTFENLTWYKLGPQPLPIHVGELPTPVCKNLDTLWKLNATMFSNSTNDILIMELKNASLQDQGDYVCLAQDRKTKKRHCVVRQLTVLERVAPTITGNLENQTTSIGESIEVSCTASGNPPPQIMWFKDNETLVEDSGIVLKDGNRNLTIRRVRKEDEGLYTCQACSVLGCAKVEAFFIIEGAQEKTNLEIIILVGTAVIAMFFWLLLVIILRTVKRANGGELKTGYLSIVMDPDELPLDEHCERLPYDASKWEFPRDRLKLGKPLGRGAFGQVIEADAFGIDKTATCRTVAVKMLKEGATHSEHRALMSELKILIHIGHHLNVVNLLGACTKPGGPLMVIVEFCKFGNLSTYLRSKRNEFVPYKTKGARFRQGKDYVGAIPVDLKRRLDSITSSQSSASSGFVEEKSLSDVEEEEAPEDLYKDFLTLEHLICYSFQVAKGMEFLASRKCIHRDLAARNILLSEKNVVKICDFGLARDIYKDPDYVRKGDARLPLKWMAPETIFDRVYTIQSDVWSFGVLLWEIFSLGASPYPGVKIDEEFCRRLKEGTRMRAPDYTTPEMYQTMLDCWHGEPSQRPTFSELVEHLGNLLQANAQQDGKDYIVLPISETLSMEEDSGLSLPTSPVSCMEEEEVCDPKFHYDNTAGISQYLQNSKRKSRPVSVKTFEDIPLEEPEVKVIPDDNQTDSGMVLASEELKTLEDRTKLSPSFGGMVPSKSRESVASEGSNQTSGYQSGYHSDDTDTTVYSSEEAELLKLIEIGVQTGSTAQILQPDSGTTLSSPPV
T1 sequence (P00533 whole entry): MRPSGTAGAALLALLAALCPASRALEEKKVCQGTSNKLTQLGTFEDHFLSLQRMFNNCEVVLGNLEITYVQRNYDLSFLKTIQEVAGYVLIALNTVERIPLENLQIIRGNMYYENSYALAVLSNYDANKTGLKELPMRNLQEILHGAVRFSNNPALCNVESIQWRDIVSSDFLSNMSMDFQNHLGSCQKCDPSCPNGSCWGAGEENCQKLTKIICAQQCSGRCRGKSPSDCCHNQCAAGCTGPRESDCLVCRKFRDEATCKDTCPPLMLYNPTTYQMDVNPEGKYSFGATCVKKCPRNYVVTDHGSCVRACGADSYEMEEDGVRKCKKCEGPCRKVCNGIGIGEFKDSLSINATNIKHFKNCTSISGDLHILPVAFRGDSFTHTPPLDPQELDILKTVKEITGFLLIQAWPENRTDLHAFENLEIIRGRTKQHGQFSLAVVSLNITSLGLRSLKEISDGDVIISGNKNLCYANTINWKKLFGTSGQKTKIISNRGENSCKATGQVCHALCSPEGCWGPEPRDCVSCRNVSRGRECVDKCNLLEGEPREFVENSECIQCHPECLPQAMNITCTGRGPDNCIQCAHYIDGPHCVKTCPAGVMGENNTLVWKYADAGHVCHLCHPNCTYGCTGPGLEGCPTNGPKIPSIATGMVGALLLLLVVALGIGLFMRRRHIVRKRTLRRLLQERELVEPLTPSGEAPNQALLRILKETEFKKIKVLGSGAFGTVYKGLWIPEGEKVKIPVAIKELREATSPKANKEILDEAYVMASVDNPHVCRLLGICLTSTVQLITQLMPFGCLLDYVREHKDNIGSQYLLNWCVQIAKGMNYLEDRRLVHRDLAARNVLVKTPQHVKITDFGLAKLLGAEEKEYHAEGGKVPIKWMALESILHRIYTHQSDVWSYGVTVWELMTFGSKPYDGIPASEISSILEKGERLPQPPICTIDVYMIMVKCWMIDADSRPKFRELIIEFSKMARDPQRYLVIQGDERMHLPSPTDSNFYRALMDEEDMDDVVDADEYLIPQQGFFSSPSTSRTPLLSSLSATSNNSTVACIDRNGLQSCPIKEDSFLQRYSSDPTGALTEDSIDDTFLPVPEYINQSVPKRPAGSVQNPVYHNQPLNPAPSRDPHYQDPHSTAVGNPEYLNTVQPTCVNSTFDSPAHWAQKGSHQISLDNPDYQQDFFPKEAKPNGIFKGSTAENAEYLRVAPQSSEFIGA

`COc1cc2c(cc1OC)Oc1ncnc(Nc3ccc(F)c(Cl)c3)c1NC2` registered an IC50 in test [1] of 0.7 µM.

For `COc1cc2c(cc1OC)Sc1ncnc(Nc3ccc4ncsc4c3)c1NC2`, in test [2], the IC50 was above 100 µM.

Take `COc1cc2c(cc1OC)Oc1ncnc(Oc3cccc(Cl)c3F)c1NC2`: the IC50 in test [2] was determined as 4.6 µM. For `COc1cc2c(cc1OC)Sc1nc(C)nc(Nc3ccc4c[nH]nc4c3)c1NC2`, the IC50 in test [2] is 24.6 µM. For the compound `COc1cc2c(cc1OC)Sc1nc(C)nc(Nc3ccc4[nH]cnc4c3)c1NC2`, the IC50 in test [2] is 14.5 µM. For the compound `COc1cc2c(cc1OC)Sc1nc(C)nc(Nc3ccc4ncsc4c3)c1NC2`, in test [2], the IC50 is 15.2 µM. Turning to `COc1cc2c(cc1OC)Sc1nc(C)nc(Nc3ccc(F)c(Cl)c3)c1NC2`, the IC50 in test [2] worked out at 45.9 µM. With `COc1cc2c(cc1OC)Oc1ncnc(Nc3cc(Cl)ccc3F)c1NC2`, the IC50 was 3.9 µM in test [1] and 1.1 µM in test [2]. For the compound `COc1cc2c(cc1OC)Oc1ncnc(Sc3cccc(Br)c3)c1NC2`, the results for the IC50 in test [3], in test [1] and in test [2] were above 10 µM, 1.2 µM and 1.3 µM, respectively. For the compound `COc1cc2c(cc1OC)Sc1nc(C)nc(Nc3ccc4ccccc4c3)c1NC2`, the IC50 in test [2] turned out to be 17 µM.

`COc1cc2c(cc1OC)Oc1ncnc(Nc3cccc(Cl)c3F)c1NC2`: the IC50 in test [1] turned out to be 4.6 µM; in test [2], 0.3 µM. With `COc1cc2c(cc1OC)Sc1ncnc(Nc3cccc(Cl)c3F)c1NC2`, in test [2], the IC50 came to 62.9 µM. Regarding `COc1cc2c(cc1OC)Nc1ncnc(Nc3cccc(Br)c3)c1NC2`, in test [2], the IC50 came to 1.5 µM. `C#Cc1cccc(Nc2ncnc3c2NCc2cc(OC)c(OC)cc2O3)c1`: the IC50 was found to be 0.9 µM in test [1] and 3.2 µM in test [2]. `COc1cc2c(cc1OC)Nc1ncnc(NCc3ccccc3)c1NC2`: the IC50 in test [3] turned out to be 2 µM; in test [1], 0.9 µM; in test [2], 0.2 µM. Taken in the same sequence, the figures for `COc1cc2c(cc1OC)Oc1ncnc(Sc3cccc(Cl)c3)c1NC2` were above 10 µM, 2.4 µM and 1 µM. Regarding `COc1cc2c(cc1OC)Sc1ncnc(N(C)c3cccc(Br)c3)c1NC2`, in test [2], the IC50 was above 100 µM. As to `COc1cc2c(cc1OC)Sc1ncnc(Nc3ccc(F)c(Cl)c3)c1NC2`, the IC50 in test [2] worked out at 8.2 µM.

Turning to `COc1cc2c(cc1OC)Oc1ncnc(Nc3ccc4c[nH]nc4c3)c1NC2`, the IC50 is above 10 µM in test [3] and 1.2 µM in test [2]. For the compound `COc1cc2c(cc1OC)Sc1ncnc(Oc3cccc(Br)c3)c1NC2`, the IC50 in test [2] worked out at 21.7 µM. For `COc1cc2c(cc1OC)Oc1ncnc(Nc3ccc4ccccc4c3)c1NC2`, the IC50 in test [3] is above 10 µM; in test [1], 2.3 µM; in test [2], 0.5 µM. In the case of `COc1cccc(CNc2ncnc3c2NCc2cc(OC)c(OC)cc2N3)c1`, the IC50 in test [3] was 2 µM; in test [1] it was 11.7 µM; in test [2], 0.8 µM. As for `COc1cc2c(cc1OC)Oc1ncnc(Oc3cccc(Br)c3)c1NC2`, the IC50 in test [3] is above 10 µM; in test [1], 1.8 µM; in test [2], 0.7 µM.

With `COc1cc2c(cc1OC)Nc1ncnc(NCc3ccc(F)c(Cl)c3)c1NC2`, the IC50 in test [3] is 2 µM; in test [1], 1.6 µM; in test [2] it was 0.3 µM.

For the compound `COc1cc2c(cc1OC)Oc1ncnc(Nc3ccc4ncsc4c3)c1NC2`, the IC50 in test [3] is above 10 µM; in test [2], 5.6 µM.

For the compound `COc1cc2c(cc1OC)Nc1ncnc(N[C@H](C)c3ccccc3)c1NC2`, the IC50 was found to be 2 µM in test [3], 0.5 µM in test [1] and 0.15 µM in test [2]. For `COc1cc2c(cc1OC)Oc1ncnc(Nc3cccc(Br)c3)c1NC2`, the IC50 is above 10 µM in test [3], 0.5 µM in test [1] and 0.3 µM in test [2].

Consider `COc1cc2c(cc1OC)Sc1nc(C)nc(Nc3ccc(C)c(Br)c3)c1NC2`, for which the IC50 in test [2] is above 100 µM. As to `COc1cc2c(cc1OC)Sc1nc(C)nc(Nc3ccc4c(c3)CN=N4)c1NC2`, in test [2], the IC50 worked out at 16.2 µM.

Take `COc1cc2c(cc1OC)Oc1ncnc(Oc3cccc(Br)c3)c1N(C)C2`: the IC50 in test [1] came out at 6.1 µM; in test [2], 1.2 µM. Regarding `COc1cc2c(cc1OC)Sc1ncnc(Sc3cccc(Cl)c3)c1NC2`, the IC50 in test [2] came out at 2.9 µM. For `COc1cc2c(cc1OC)Oc1ncnc(Nc3ccc(Br)cc3)c1NC2`, the IC50 in test [3] was above 10 µM; in test [1], above 100 µM; in test [2], 8.7 µM. Consider `COc1cc2c(cc1OC)Sc1ncnc(Oc3cccc(Cl)c3F)c1NC2`, for which the IC50 in test [2] was 19.3 µM. On to `COc1cc2c(cc1OC)Sc1ncnc(Nc3ccc4c[nH]nc4c3)c1NC2`, for which the IC50 in test [2] was 14.1 µM.

As for `COc1cc2c(cc1OC)Oc1nc(C)nc(Nc3cccc(Cl)c3F)c1NC2`, the IC50 in test [3] is above 10 µM; in test [2], above 100 µM. For the compound `COc1cc2c(cc1OC)Sc1nc(C)nc(Nc3ccc(Cl)c(C)c3)c1NC2`, in test [2], the IC50 was above 100 µM. For the compound `COc1cc2c(cc1OC)Oc1ncnc(Nc3cccc(C)c3)c1NC2`, the IC50 is above 10 µM in test [3], 4.4 µM in test [1] and 7.4 µM in test [2]. For the compound `COc1cc2c(cc1OC)Sc1ncnc(Sc3cccc(Br)c3)c1NC2`, in test [2], the IC50 came out at 1.6 µM. In the case of `COc1cc2c(cc1OC)Sc1nc(C)nc(Nc3cccc(Cl)c3F)c1NC2`, in test [2], the IC50 was above 100 µM. As for `COc1cc2c(cc1OC)Oc1ncnc(Nc3ccc(F)cc3)c1NC2`, the IC50 was above 10 µM in test [3], 7.6 µM in test [1] and 7.1 µM in test [2]. Take `COc1cc2c(cc1OC)Sc1ncnc(N(C)c3cccc(Cl)c3)c1NC2`: the IC50 in test [2] stood at 27 µM. Still for that read-out and setting: to `COc1cc2c(cc1OC)Sc1nc(C)nc(Nc3cccc(Br)c3)c1NC2` belongs 30.7 µM.

For `COc1cc2c(cc1OC)Oc1ncnc(Oc3ccc(F)c(Cl)c3)c1N(C)C2`, the results for the IC50 in test [3] and in test [2] were above 10 µM and 10.8 µM, respectively. Turning to `COc1cc2c(cc1OC)Sc1ncnc(Nc3cccc(Br)c3)c1NC2`, the IC50 in test [2] was found to be 5.9 µM.

The record behind these values is ChEMBL document CHEMBL1149491, “Novel tricyclic azepine derivatives: Biological evaluation of pyrimido[4,5-b]-1,4-benzoxazepines, thiazepines, and diazepines as inhibitors of the epidermal growth factor receptor tyrosine kinase” (Bioorg Med Chem Lett, 2006).
